In US20230277524A1, “COMBINATION THERAPY FOR TREATMENT OF VIRAL INFECTIONS” (priority 2020, published 2023):
“Also recorded” adds a separate entry of the source. Like-named read-outs stand apart in the source and are kept apart here.

Key:
[1] = tested on: VERO-EGFP cells
[2] = tested on: SARS-CoV-2 virus; type: cell-based
[3] = tested on: SARS-CoV-2 virus; assay: microbe, parasite or virus in culture; type: cell-based; conditions: Severe acute respiratory syndrome coronavirus 2, 72 h; Vero E6-WT cells, three days post-infection; read-out: EC50 for % inhibition of virus-induced CPE
[4] = tested on: SARS-CoV-2 virus; assay: microbe, parasite or virus in culture; type: cell-based
[5] = tested on: SARS-CoV-2; assay: Cell-based antiviral assay (CPE, MTS) in Huh7 cells; conditions: Huh7, 0.0062 μM concentration level, 4 days post-infection
[6] = tested on: ABCB1; conditions: low-nM dual-specificity ABCB1/ABCG2 inhibitor; cited from earlier work
[7] = plate 3, 12 drugs, 250 nM, day 4, MLR model (FIG. 2)
[8] = 250 nM, day 4 (FIG. 3, P3 TOX 250 nM)

With `C[C@H]1CCC/C=C/[C@@H]2C[C@H](O)C[C@H]2[C@H](O)/C=C/C(=O)O1` [BrefA, Brefeldin A] as the compound, how does the “toxicity (loss of fluorescence intensity, cell loss)” value ([1]; twelve-drug plate, scanned 4 days later (FIG. 10)) read?
The value was “cytotoxic and the cause of the observed cell loss”.

With `Cc1c(O)c(=O)ccn1C` [Deferiprone] as the compound, how does the “complementing the REC combination or substituting for curcumin” value [2] read?
Its value is “failed to complement the REC combination or substitute for curcumin”.

Which results are given for `O=c1nc(NO)ccn1[C@@H]1O[C@H](CO)[C@@H](O)[C@H]1O` [EIDD-1931]?
enhancement of / effect on the REC combination [2]: had no effect on the REC combination; substitution for remdesivir in the REC combination ([2]; focus testing (FIGS. 13-18)): failed to substitute for remdesivir; substitution for remdesivir in the REC combination ([2]; focus testing (FIGS. 13-18), listed as EIDD1931): none were able to substitute for remdesivir; individual antiviral efficacy against SARS-CoV2 ([2]; listed as EIDD1): does not exert an antiviral effect; individual antiviral efficacy against SARS-CoV2 ([2]; listed as EIDD1931): did not provide evidence for efficacy

With `CC(C)C(=O)OC[C@H]1O[C@@H](n2cc/c(=N\O)[nH]c2=O)[C@H](O)[C@@H]1O` [EIDD-2801] as the compound, how does the “substitution for remdesivir in the REC combination” value [2] read?
The value was “failed as a substitute for remdesivir; also recorded: none were able to substitute for remdesivir”.

Which results are given for `N#C[C@@]1(c2ccc3c(N)ncnn23)O[C@H](CO)[C@@H](O)[C@H]1O` [GS441524]?
individual antiviral efficacy against SARS-CoV2 [2]: smaller, yet significant, antiviral effect; substitution for remdesivir in the REC combination [2]: did not replace remdesivir in the REC combination; also recorded: failed to substitute for remdesivir; criticality when optimized for maximal cytopathic effect ([2]; system optimization): failed to demonstrate criticality

Which “enhancement of / effect on the REC combination” value (from here on “enhancement of / effect”) [2] does the source give for `Cc1sc2c(c1C)C(c1ccc(Cl)cc1)=N[C@@H](CC(=O)OC(C)(C)C)c1nnc(C)n1-2` [JQ-1] here?
The value was “none of the compounds synergized with the REC combination”.

Which “substitution / complementation for elacridar in the REC combination” value (from here on “substitution / complementation”) ([2]; focus testing, REC combination at 250 nM (FIGS. 11, 12, 17)) does the source give for `COc1ccc2c3c([nH]c2c1)[C@H](CC(C)C)N1C(=O)[C@H](CCC(=O)OC(C)(C)C)NC(=O)[C@@H]1C3` [Ko143] here?
The value was “failed to complement for elacridar”.

What about the “substitution / complementation” value ([2]; focus testing, REC combination at 250 nM (FIGS. 11, 12, 17), listed as K0143) of the same compound?
Its value is “cannot substitute for elacridar”.

For `CC(=O)N[C@@H](CS)C(=O)O` [N-acetyl cysteine], which “complementing the REC combination or substituting for curcumin” value [2] is on record?
The value was “failed to complement the REC combination, or substitute for curcumin”.

Which “substitution / complementation” value [2] does the source give for `CCOC/C=C/c1ccc(-c2nc(-c3ccc(NC(C)C)cc3)c(-c3ccc(NC(C)C)cc3)[nH]2)cc1` [ONT-093] here?
Its value is “failed to complement”.

For `CC(C)[C@H](NC(=O)c1ccc2ccccc2n1)C(=O)N[C@@H](CC(=O)O)C(=O)COc1c(F)cccc1F` [Q-VD-Oph], which “enhancement of / effect” value [2] is on record?
Its value is “none of the compounds synergized with the REC combination”.

Which “substitution / complementation” value [2] does the source give for `O=c1c(O)c(-c2ccc(O)c(O)c2)oc2cc(O)cc(O)c12` [Quercetin] here?
Its value is “failed to complement for elacridar”.

With `Nc1nc(Nc2ccc3c(c2)CCC(N2CCCC2)CC3)nn1-c1cc2c(nn1)-c1ccccc1CCC2` (centres unmarked) [R428] as the compound, how does the “enhancement of / effect” value [2] read?
Its value is “all failed to enhance the REC combination”.

What does the source list for `CN(C)C(=O)COC(=O)Cc1ccc(OC(=O)c2ccc(NC(=N)N)cc2)cc1` [camostat]?
individual antiviral efficacy against SARS-CoV2 [2]: did not provide evidence for efficacy; antiviral response (survival of the cells in response to the SARS-CoV-2 virus) [2, 7]: negatively impacted the survival of the cells

Which “enhancement of / effect” value [2] does the source give for `Cc1cc(C)c(Nc2ccnc(Nc3ccc(C#N)cc3)n2)c(C)c1` [dapivirine] here?
Its value is “all failed to enhance the REC combination”.

Which “toxicology (cell viability without virus)” value [1, 8] does the source give for `COc1cc2c(cc1OC)CN(CCc1ccc(NC(=O)c3cccc4c(=O)c5cccc(OC)c5[nH]c34)cc1)CC2` [elacridar] here?
Its value is “none of the three drugs in the triad of remdesivir, elacridar, and curcumin negatively impacted cell viability”.

What about the “antiviral response (survival of the cells in response to the SARS-CoV-2 virus)” value [2, 7] of the same compound?
The value was “antiviral response was demonstrated”.

What about the EC50 [3] of the same compound?
The EC50 was 1070 ± 500 nM.

What about the EC50 ([4]; Severe acute respiratory syndrome coronavirus 2, 72 h, Vero E6-GFP cells, three days post-infection, read-out: EC50 for % inhibition of virus-induced CPE) of the same compound?
The EC50 was 2160 ± 500 nM.

For `NC(=O)c1nc(F)c[nH]c1=O` [favipiravir], which “enhancement of / effect” value [2] is on record?
The value was “had no effect on the efficacy of the remdesivir, elacridar, and curcumin combination”.

And the “individual antiviral efficacy against SARS-CoV2” value (from here on “individual antiviral efficacy”) [2]?
The value was “failed to emerge as efficacious”.

What about the “substitution for remdesivir in the REC combination” value [2] of the same compound?
Its value is “none were able to substitute for remdesivir”.

With `Cc1nc(-c2ccc(OCC(C)C)c(C#N)c2)sc1C(=O)O` [febuxostat] as the compound, how does the “substitution / complementation” value [2] read?
The value was “cannot substitute for elacridar; also recorded: failed to complement”.

With `CN1CC[C@H](c2c(O)cc(O)c3c(=O)cc(-c4ccccc4Cl)oc23)[C@H](O)C1` [flavopiridol] as the compound, how does the “toxicology (cytotoxicity without virus)” value [1] read?
The value was “cytotoxic”.

And the “toxicology (cell viability without virus)” value [1, 8]?
Its value is “highly toxic to the Vero-EGFP cells”.

What about the “toxicology (cell viability without virus)” value ([1]; 250 nM, day 4 (FIG. 3, P3 TOX 250 nM), listed as Flavopiridol) of the same compound?
The value was “individually caused cell death”.

What about the “interaction terms / synergism in antiviral response” value [2] of the same compound?
The value was “did not interact significantly with the other three compounds”.

And the “antiviral response (survival of the cells in response to the SARS-CoV-2 virus)” value [2, 7]?
The value was “antiviral response was demonstrated”.

With `Nc1ncnc2c([C@@H]3N[C@H](CO)[C@@H](O)[C@H]3O)c[nH]c12` [galidesivir] as the compound, how does the “contribution factor to the effect of the REC combination” value [2] read?
Its value is 9.6.

With `CCN(CCO)CCCC(C)Nc1ccnc2cc(Cl)ccc12` (centres unmarked) [hydroxychloroquine] as the compound, how does the “enhancement of / effect” value [2] read?
Its value is “all failed to enhance the REC combination”.

And the “individual antiviral efficacy” value [2]?
The value was “failed to emerge as efficacious”.

For `CCCCC1=NC2(CCCC2)C(=O)N1Cc1ccc(-c2ccccc2-c2nnn[nH]2)cc1` [irbesartan], which “individual antiviral efficacy” value [2] is on record?
The value was “did not provide evidence for efficacy”.

And the “antiviral response (survival of the cells in response to the SARS-CoV-2 virus)” value [2, 7]?
The value was “negatively impacted the survival of the cells”.

With `Cc1cccc(C)c1OCC(=O)N[C@@H](Cc1ccccc1)[C@@H](O)C[C@H](Cc1ccccc1)NC(=O)[C@H](C(C)C)N1CCCNC1=O` [lopinavir] as the compound, how does the “individual antiviral efficacy” value [2] read?
The value was “did not provide evidence for efficacy”.

What does the source list for `OC(c1cc(C(F)(F)F)nc2c(C(F)(F)F)cccc12)C1CCCCN1` (centres unmarked) [mefloquine]?
enhancement of / effect on the REC combination [2]: all failed to enhance the REC combination; individual antiviral efficacy against SARS-CoV2 [2]: did not provide evidence for efficacy

With `Cc1c(O)cccc1C(=O)N[C@@H](CSc1ccccc1)[C@H](O)CN1C[C@H]2CCCC[C@H]2C[C@H]1C(=O)NC(C)(C)C` [nelfinavir] as the compound, how does the “enhancement of / effect” value [2] read?
The value was “all failed to enhance the REC combination”.

With `CCC(CC)COC(=O)[C@H](C)N[P@](=O)(OC[C@H]1O[C@@](C#N)(c2ccc3c(N)ncnn23)[C@H](O)[C@@H]1O)Oc1ccccc1` [remdesivir] as the compound, how does the “toxicology (cell viability without virus)” value [1] read?
The value was “none of the three drugs in the triad of remdesivir, elacridar, and curcumin negatively impacted cell viability”.

What about the “toxicology (cytotoxicity without virus)” value [1] of the same compound?
Its value is “no cytotoxicity”.

And the “antiviral response (survival of the cells in response to the SARS-CoV-2 virus)” value [2]?
Its value is “antiviral response was demonstrated”.

And the “cytopathic effect of the virus at one concentration” value [5]?
The value was “minimally protected”.

What about the “inhibition of virus-induced cytopathic effect” value ([4]; Vero E6-GFP, 1.11 μM) of the same compound?
Its value is 50-60%.

Which “individual antiviral efficacy” value [2] does the source give for `CC(N)C12CC3CC(CC(C3)C1)C2` (centres unmarked) [rimantadine] here?
The value was “did not provide evidence for efficacy”.

For `CC(C)c1nc(CN(C)C(=O)N[C@H](C(=O)N[C@@H](Cc2ccccc2)C[C@H](O)[C@H](Cc2ccccc2)NC(=O)OCc2cncs2)C(C)C)cs1` [ritonavir], which “individual antiviral efficacy” value [2] is on record?
The value was “did not provide evidence for efficacy”.

For `COc1cc2c(cc1OC)CN(CCc1ccc(NC(=O)c3cc(OC)c(OC)cc3NC(=O)c3cnc4ccccc4c3)cc1)CC2` [tariquidar], which “antiviral potency in synergizing with remdesivir (interaction terms)” value [2] is on record?
Its value is “equally potent in synergizing with remdesivir”.

What about the “substitution / complementation” value [2] of the same compound?
Its value is “can be substituted for elacridar”.

What about the ABCB1 inhibitory potency [6] of the same compound?
Its ABCB1 inhibitory potency is 5.1 nM.

Which “enhancement of / effect” value [2] does the source give for `C=C1CC[C@H](O)C/C1=C/C=C1\CCC[C@]2(C)[C@@H]([C@H](C)CCCC(C)C)CC[C@@H]12` [vit-D3] here?
Its value is “failed to enhance the REC combination”.

For `[Zn]` [zinc], which “enhancement of / effect” value [2] is on record?
The value was “failed to enhance the REC combination”.

Which “enhancement of / effect” value [2] does the source give for Z-VAD here?
Its value is “none of the compounds synergized with the REC combination”.

Which “enhancement of / effect” value [2] does the source give for ivermectin here?
Its value is “unable to enhance the REC combination”.

What about the “individual antiviral efficacy” value [2] of the same compound?
Its value is “individual, but limited potency”.
